Like-named read-outs stand apart in the source and are kept apart here.
Tested on: panel of human cell lines
Experiment: In vitro proliferation assay, Cell Titer Glo, two doubling times, 298 cell lines
Assay type: cell-based
Conditions: Homo sapiens, read-out: ABS_IC50_VALUE
Source text: Cell Titer Glo measures ATP, thus the IC50s represent both the effect on purine production and cell proliferation, which are related. […] Folates are actively taken up in cells by reduced folate carrier (SLC19A1), proton-coupled folate transporter (SLC46A1), and the FOLR1 folate receptor[17]. Once inside the cell, folates are trapped by polyglutamation catalyzed by folylpolyglutamate synthetase (FPGS). […] Gene expression data for ATIC, GART, APRT, HPRT, FOLR1, SLC19A1, SLC46A1 & FPGS are shown in Fig. 2, since these genes were anticipated to predict sensitivity. […] The MDA-MB-231 cell line is reduced folate carrier (SLC19A1) negative due to epigenetic silencing.
Cells were cultured using recommended culture conditions unless noted otherwise (Supplemental Table 3). Cells were plated, dosed with compound and incubated at 37 °C for approximately 2 doubling times as determined for each cell line. Cell Titer Glo (Promega) assay was used to measure proliferation according to manufacturer’s recommendations by measuring luminescence with Flexstation3 (Molecular Devices) with 500 ms integration time. […] The % response was fit to a four-parameter logistic equation using ACTIVITYBASE 4.0 to determine the absolute IC50 values.
Cell Lines: Cell lines of adrenal gland, autonomic ganglia, biliary tract, blood ALL, blood AML, blood CML, blood hodgkin lymphoma, blood lymphoma, blood multiple myeloma, blood NHL, blood RAEB, bone, breast ER+, breast fibroblast, breast fibroblast mixed, breast HER2, breast normal, breast triple negative, cervix, CNS, endometrium, eye, fibroblast normal, kidney ns, kidney renal, large intestine, liver, liver normal, lung adenocarcinoma, lung ns, lung NSCLC, lung NSCLC mixed, lung SCLC, lung squamous, melanoma, melanoma normal, esophagus adenocarcinoma, esophagus ns, esophagus squamous, ovary, pancreas adenocarcinoma, pancreas ductal carcinoma, pancreas ns, pleura mesothelioma, prostate adenocarcinoma, prostate small cell, salivary gland, small intestine, soft tissue, stomach, testis, thyroid, thyroid squamous, umbilical vein endothelial cell normal, upper aerodigestive tract squamous, urinary tract ns, urinary tract transitional cell carcinoma, and vulva squamous origin were obtained from ATCC, CASTCC, CLS, DSMZ, ECACC, HSRRB, ICLC, JCRB, NCI, Riken and SNU cell banks. The murine A9 cell line was acquired from the ATCC (CCL-1.4).

O=c1[nH]ccc2cc(F)c(NS(=O)(=O)c3ccc(N4CC[C@@H](O)C4)s3)cc12 [LSN3213128, N-(6-Fluoro-1-oxo-1,2-dihydroisoquinolin-7-yl)-5-[(3R)-3-hydroxypyrrolidin-1-yl]thiophene-2-sulfonamide]
IC50 (NCI-H661, NCI-H661, lung): 16.2 µM | IC50 (NCI-H716, NCI-H716, large intestine): 1.34 µM | IC50 (NCI-H929, NCI-H929, haematopoietic and lymphoid tissue): > 20 µM | IC50 (NCI-H1048, NCI-H1048, lung): > 20 µM | IC50 (NCI-H1092, NCI-H1092, lung): > 20 µM | IC50 (NCI-H1105, lung): > 20 µM | IC50 (NCI-H1155, NCI-H1155, lung): 13.6 µM | IC50 (NCI-H1299, NCI-H1299, lung): 1.32 µM | IC50 (NCI-H1341, lung): 2.83 µM | IC50 (NCI-H1355, NCI-H1355, lung): > 20 µM | IC50 (NCI-H1395, NCI-H1395, lung): 12.6 µM | IC50 (NCI-H1435, NCI-H1435, lung): > 20 µM | IC50 (NCI-H1437, NCI-H1437, lung): 1.37 µM | IC50 (NCI-H1573, NCI-H1573, lung): > 20 µM | IC50 (NCI-H1581, NCI-H1581, lung): 16.5 µM | IC50 (NCI-H1618, lung): > 20 µM | IC50 (NCI-H1623, NCI-H1623, lung): > 20 µM | IC50 (NCI-H1648, NCI-H1648, lung): > 20 µM | IC50 (NCI-H1650, NCI-H1650, lung): 8.18 µM | IC50 (NCI-H1651, NCI-H1651, lung): > 20 µM | IC50 (NCI-H1666, NCI-H1666, lung): > 20 µM | IC50 (NCI-H1694, NCI-H1694, lung): > 20 µM | IC50 (NCI-H1703, NCI-H1703, lung): > 20 µM | IC50 (NCI-H1734, NCI-H1734, lung): > 20 µM | IC50 (NCI-H1781, NCI-H1781, lung): > 20 µM | IC50 (NCI-H1792, NCI-H1792, lung): 8.57 µM | IC50 (NCI-H1793, NCI-H1793, lung): > 20 µM | IC50 (NCI-H1836, NCI-H1836, lung): 2.47 µM | IC50 (NCI-H1838, NCI-H1838, lung): > 20 µM | IC50 (NCI-H1876, lung): > 20 µM | IC50 (NCI-H1930, NCI-H1930, lung): 17.8 µM | IC50 (NCI-H1944, NCI-H1944, lung): > 20 µM | IC50 (NCI-H1975, NCI-H1975, lung): 2.15 µM | IC50 (NCI-H2009, NCI-H2009, lung): > 20 µM | IC50 (NCI-H2023, NCI-H2023, lung): > 20 µM | IC50 (NCI-H2029, NCI-H2029, lung): > 20 µM | IC50 (NCI-H2030, NCI-H2030, lung): 8.19 µM | IC50 (NCI-H2052, NCI-H2052, pleura): > 20 µM | IC50 (NCI-H2066, NCI-H2066, lung): > 20 µM | IC50 (NCI-H2081, NCI-H2081, lung): > 20 µM | IC50 (NCI-H2085, lung): > 20 µM | IC50 (NCI-H2087, NCI-H2087, lung): > 20 µM | IC50 (NCI-H2122, NCI-H2122, lung): 1.22 µM | IC50 (NCI-H2126, NCI-H2126, lung): > 20 µM | IC50 (NCI-H2170, NCI-H2170, lung): 13.7 µM | IC50 (NCI-H2171, NCI-H2171, lung): > 20 µM | IC50 (NCI-H2227, lung): > 20 µM | IC50 (NCI-H2228, NCI-H2228, lung): 7.07 µM | IC50 (NCI-H2286, NCI-H2286, lung): 17.6 µM | IC50 (NCI-H2347, NCI-H2347, lung): > 20 µM | IC50 (NCI-H2405, NCI-H2405, lung): > 20 µM | IC50 (NCI-H2452, NCI-H2452, pleura): > 20 µM | IC50 (NCI-N87, NCI-N87, stomach): 2.39 µM | IC50 (NCI-SNU-5, stomach): > 20 µM | IC50 (NCI-SNU-16, stomach): 1.18 µM | IC50 (NH-6, autonomic ganglia): > 20 µM | IC50 (NMC-G1, central nervous system): > 20 µM | IC50 (NOMO-1, NOMO-1, haematopoietic and lymphoid tissue): 2.03 µM | IC50 (NUGC-3, NUGC-3, stomach): 11.9 µM | IC50 (NUGC-4, NUGC-4, stomach): 8.38 µM | IC50 (OCUM1, OCUM-1, stomach): 16.5 µM | IC50 (OE19, OE19, oesophagus): 6.52 µM | IC50 (OE33, OE33, oesophagus): 12.7 µM | IC50 (ONS-76, ONS-76, central nervous system): 3.6 µM | IC50 (OVCAR-3, OVCAR-3, ovary): 12.7 µM | IC50 (OVMANA, ovary): 2.59 µM | IC50 (P31-FUJ, haematopoietic and lymphoid tissue): 0.71 µM | IC50 (PC-3, prostate): > 20 µM | IC50 (PF-382, PF-382, haematopoietic and lymphoid tissue): 2.13 µM | IC50 (Panc 04.03, Panc 04.03, pancreas): 5.44 µM | IC50 (Pfeiffer, haematopoietic and lymphoid tissue): 2.55 µM | IC50 (QGP-1, QGP-1, pancreas): 10.7 µM | IC50 (RD, soft tissue): 9.13 µM | IC50 (RD-ES, bone): 8.54 µM | IC50 (REH, haematopoietic and lymphoid tissue): 6.9 µM | IC50 (RERF-LC-MS, lung): 1.92 µM | IC50 (RKN, ovary): > 20 µM | IC50 (RKO, large intestine): 8.04 µM | IC50 (RL95-2, RL95-2, endometrium): > 20 µM | IC50 (RL, haematopoietic and lymphoid tissue): 0.76 µM | IC50 (RMG-I, ovary): > 20 µM | IC50 (RPMI-7951, RPMI-7951, skin): > 20 µM | IC50 (RPMI-8226, RPMI-8226, haematopoietic and lymphoid tissue): 12.6 µM | IC50 (RT4, urinary tract): > 20 µM | IC50 (RT112/84, RT112/84, urinary tract): 1.92 µM | IC50 (Raji, haematopoietic and lymphoid tissue): 7.5 µM | IC50 (Rec1, REC-1, haematopoietic and lymphoid tissue): > 20 µM | IC50 (SCC-4, SCC-4, upper aerodigestive tract): > 20 µM | IC50 (SCC-9, SCC-9, upper aerodigestive tract): > 20 µM | IC50 (SCC-15, SCC-15, upper aerodigestive tract): > 20 µM | IC50 (SCC-25, SCC-25, upper aerodigestive tract): > 20 µM | IC50 (SH-10-TC, stomach): > 20 µM | IC50 (SJRH30, SJRH30, soft tissue): 5.13 µM | IC50 (SJSA-1, SJSA-1, bone): > 20 µM | IC50 (SK-BR-3, SK-BR-3, breast): 6.52 µM | IC50 (SK-CO-1, SK-CO-1, large intestine): 12.8 µM | IC50 (SK-ES1, SK-ES-1, bone): > 20 µM | IC50 (SK-HEP1, SK-HEP-1, liver): 11.1 µM | IC50 (SK-LMS-1, SK-LMS-1, soft tissue): 0.91 µM | IC50 (SK-LU-1, SK-LU-1 (lung, adenocarcinoma)): > 20 µM | IC50 (SK-MEL3, SK-MEL-3 (skin, malignant melanoma)): > 20 µM | IC50 (SK-MEL-2, SK-MEL-2 (skin, malignant melanoma)): > 20 µM | IC50 (SK-MEL-5, SK-MEL-5 (skin, melanoma)): > 20 µM | IC50 (SK-MEL-24, SK-MEL-24 (skin, malignant melanoma)): > 20 µM | IC50 (SK-MEL-28, SK-MEL-28 (skin, malignant melanoma)): 0.47 µM | IC50 (SK-MEL-31 (skin, malignant melanoma)): > 20 µM | IC50 (SK-MES-1, SK-MES-1 (lung; squamous cell carcinoma)): 2.25 µM | IC50 (SK-N-AS, SK-N-AS (brain, neuroblastoma)): > 20 µM | IC50 (SK-OV-3, SK-OV-3 (ovary, adenocarcinoma)): > 20 µM | IC50 (SNB-19, SNB19 (central nervous system, Glioblastoma)): 0.79 µM | IC50 (SNG-M (endometrium, endometrial adenocarcinoma)): > 20 µM | IC50 (SNU-182, SNU-182 (liver, hepatocellular carcinoma)): 20.7 µM | IC50 (SNU-216, SNU-216 (stomach, Human gastric carcinoma)): > 20 µM | IC50 (SNU-387, SNU-387 (liver, pleomorphic hepatocellular carcinoma)): 27 µM | IC50 (SNU-398, SNU-398 (liver, hepatocellular carcinoma)): 16.4 µM | IC50 (SNU-423, SNU-423 (liver, pleomorphic hepatocellular carcinoma)): 21.7 µM | IC50 (SNU-449, SNU-449 (liver, hepatocellular carcinoma)): 11.3 µM | IC50 (SNU-475, SNU-475 (liver, hepatocellular carcinoma)): 24.8 µM | IC50 (SNU-C1, SNU-C1 (large intestine, colon, adenocarcinoma)): 4.55 µM | IC50 (SNU-C2A (large intestine, cecum, colorectal carcinoma)): > 20 µM | IC50 (SW48, SW48 (large intestine, colon, colorectal adenocarcinoma)): 6.86 µM | IC50 (SW480, SW480 (large intestine, colon, colorectal adenocarcinoma)): 1.97 µM | IC50 (SW837, SW837 (large intestine, rectum, adenocarcinoma)): 1.28 µM | IC50 (SW1271, SW 1271 (lung; small cell lung carcinoma)): 10.4 µM | IC50 (SW1353, SW 1353 (bone, chondrosarcoma)): > 20 µM | IC50 (SW1417, SW1417 (large intestine, colon, colorectal adenocarcinoma)): > 20 µM | IC50 (SW1463, SW1463 (large intestine, rectum, colorectal adenocarcinoma)): 15.1 µM | IC50 (SW-620, SW620 (large intestine, colon, adenocarcinoma)): > 20 µM | IC50 (T84 (large intestine, colon, colorectal carcinoma)): > 20 µM | IC50 (T98G, T98G (central nervous system, glioblastoma multiforme)): 3.62 µM | IC50 (TCC-SUP, TCCSUP (urinary bladder, transitional cell carcinoma)): 4.2 µM | IC50 (TE-1 (oesophagus, esophageal squamous cell carcinoma)): 1.08 µM | IC50 (TE-5 (oesophagus, esophageal squamous cell carcinoma)): 4.79 µM | IC50 (TE-9 (oesophagus, esophageal squamous cell carcinoma)): 1.17 µM | IC50 (TE-11, TE-11 (oesophagus, esophageal squamous cell carcinoma)): 2.02 µM | IC50 (TE-15, TE-15 (oesophagus, esophageal squamous cell carcinoma)): 0.73 µM | IC50 (THP-1, THP-1 (haematopoietic and lymphoid tissue, leukemia, acute monocytic)): 5.52 µM | IC50 (TOV21G, TOV-21G (ovary, clear cell carcinoma)): > 20 µM | IC50 (TT (thyroid, carcinoma)): 10.6 µM | IC50 (Toledo, Toledo (haematopoietic and lymphoid tissue, diffuse large cell lymphoma)): > 20 µM | IC50 (U-251, U251 (central nervous system, human glioma)): 3.02 µM | IC50 (U-266, U-266 (haematopoietic and lymphoid tissue, myeloma; plasmacytoma)): 13.4 µM | IC50 (UACC-812, UACC-812 (breast, ductal carcinoma)): > 20 µM | IC50 (UMUC3, UM-UC-3 (urinary bladder, transitional cell carcinoma)): 1.93 µM | IC50 (VCaP, VCaP (prostate, prostate cancer)): 7.74 µM | IC50 (VMRC-RCZ (kidney, renal cancer)): 7.61 µM | IC50 (WM 266-4, WM-266-4 (skin, melanoma)): > 20 µM | IC50 (WM-115, WM-115 (skin, malignant melanoma)): > 20 µM | IC50 (ZR-75-30, ZR-75-30 (breast, ductal carcinoma)): > 20 µM

— article PMC6193938, “Characterization of a novel AICARFT inhibitor which potently elevates ZMP and has anti-tumor activity in murine models” (Scientific Reports, 2018)
